# “And” between values parts separate entries of the source, which are not always exact repeats. Identical values can stand only once.
# Legend:
# Type in all cases: cell-based, E. coli
# [1] = tested on: SOS regulon luxCDABE gene fusions; assay: SOS regulon lux fusions: stress response in liquid LB; conditions: each of the eight SOS fusion strains; at least three concentrations
# Procedure: To test the stress responses, one or two single colonies of each selected strain were used to inoculate 5.0 ml of LB medium containing 150 μg/ml of ampicillin. These cultures were grown overnight at 37° C. then diluted by adding 50 μl or 100 μl of the overnight culture into 10.0 ml of fresh LB medium (without ampicillin) and grown with agitation at 37° C. until the culture was in exponential phase with readings on a Klett-Summerson colorimeter containing the red filter of between 10 and 40. These actively growing cultures were immediately used to initiate a stress response experiment by adding 50 μl of cultures to 50 μl of LB medium containing various concentrations of chemical in the wells a 96 well luminometer plate. This division of the actively growing culture at the time of chemical addition ensured identical populations were present when the stress was imposed. Light production was measured in a Dynex ML3000 luminometer at 37° C. The dimensionless units of light production, relative light units (RLU), are obtained by comparison with the light reading from an internal light-emitting diode.
# The ability of these promoter-luxCDABE fusions to report activation of the SOS stress response was tested using nalidixic acid, a known, potent chemical inducer. The final concentrations of nalidixic acid were 1, 5, 25, and 125 μg/ml for all but strain DPD2293, which was tested at 80, 40, 20, 10, 5, 2.5, and 1.25 μg/ml.
# Specificity of responses was tested by measuring the effect of ethanol on these SOS regulon gene fusions.
# [2] = tested on: LuxArray 1.0 luxCDABE gene fusions; assay: LuxArray 1.0 solid phase nalidixic acid perturbation; conditions: for Solid expt NA/LB: NA 5 μg/ml; for fold upregulation, nalidixic acid treated to untreated: solid LuxArray, 5 μg/ml, 4 hours
# Procedure: The E. coli strains were grown overnight at 37° C. in 40 μl LB medium supplemented with 100 μg/ml ampicillin in a set of sixteen 96-well dishes. These cultures were designated “printing plates” and were used as the cell source to manufacture the arrays. Porous membranes (Biodyne B, Nunc) were sterilized with UV illumination for 10 min then placed in contact with pre-warmed of solid LB growth media in a culture dish (OmniTray, Nunc). Printing of 4×4 subarrays was accomplished using a BioMek 2000 (Beckman Coulter) equipped with a High Density Replication Tool (HDRT). […] After sterilization, the pins are air-dried prior to the next transfer. The E. coli strains in the LuxArray were printed onto an approximately 8×12 cm membrane in two sets of triplicates.
# Arrays were printed from fresh overnight cultures onto membranes on plates containing LB media. After 6 hr of growth at 37° C. membranes were moved to pre-warmed plates containing either LB media or LB media supplemented with 5 μg/ml nalidixic acid then replaced at 37° C. to continue growing. Images were collected for each array every two hours from 0-8 hr after relocation using a cooled CCD camera (Fluor Chem 8000: f0.85 lens, 2 min exposure, AlphaInnotech).
# Spot intensity of each image was determined using ArrayVision™ (Imaging Research, Toronto, Canada) and the resultant pixel density measurements imported into a template with identifiers for each spot. The average signal for each of the triplicate spots was calculated. The background signal, which results from cross illumination of neighboring spots, was calculated by finding the median of the 24 spots containing a strain with the parental plasmid on each of the triplicate arrays and the calculating the average of the three medians. This background signal was calculated at each of the time points and subtracted from each measurement at the corresponding time point. All negative numbers were converted to zero.
# Data normalization to account for inhibition of growth by nalidixic acid was accomplished by finding the sum of the averaged signals of each spot in the array for each treatment at each time point. A normalization factor (NF) was calculated as follows:
# NF=Total array signal (time zero, LB control)/Total array signal (time x, condition y)
# Each measurement was multiplied by NF to yield a normalized signal. Ratios the nalidixic acid treated spot to the corresponding control spot were calculated using the normalized data.
# The ratios of the normalized data were compared for each of the […] spots resulting from independent cultures in the array. […] Twelve gene fusions were selected by these criteria (Table 15).
# luxCDABE gene fusions = assay: retest of nalidixic acid upregulated fusions in liquid medium; conditions: of 7 conc tested
# Procedure: Several concentrations of nalidixic acid were used because the differences in responses between liquid and solid growth were not known. Light production of 100 μl duplicate cultures at 37° C. was quantitated using a 96 well plate luminometer (Luminoskan Ascent, Labsystems). […] It should be noted that the liquid medium tests were not corrected for growth inhibition by nalidixic acid.
structure (smiles),measurement,setting,value
"CCn1cc(C(=O)O)c(=O)c2ccc(C)nc21 [Nalidixic acid, nalidixic acid]",bioluminescence vs untreated control,[1],increased bioluminescence
same,Solid expt NA/LB,"[2]; dinG ybiB lux-a.pk0024.f5, t = 2 hr, duplicate spots",2.5 and 3.4
same,Solid expt NA/LB,"[2]; dinG ybiB lux-a.pk0024.f5, t = 4 hr",3.7 and 4.2
same,Solid expt NA/LB,"[2]; dinG ybiB lux-a.pk0024.f5, t = 6 hr",3.5 and 3.1
same,Solid expt NA/LB,"[2]; dinG ybiB lux-a.pk0024.f5, t = 8 hr",2.9 and 2.6
same,Solid expt NA/LB,"[2]; dinP lux-a.pk055.a3, t = 2 hr",3.1 and 5.5
same,Solid expt NA/LB,"[2]; dinP lux-a.pk055.a3, t = 6 hr",4.2 and 8.1
same,Solid expt NA/LB,"[2]; frvR frvX frvB frvA lux-a.pk046.e6, t = 2 hr",2.8 and 2.1
same,Solid expt NA/LB,"[2]; frvR frvX frvB frvA lux-a.pk046.e6, t = 4 hr",2.3
same,Solid expt NA/LB,"[2]; lpxA lpxB rnhB dnaE lux-a.pk061.c3, t = 2 hr",3.5 and 2.7
same,Solid expt NA/LB,"[2]; lpxA lpxB rnhB dnaE lux-a.pk061.c3, t = 4 hr",3.1 and 3.5
same,Solid expt NA/LB,"[2]; lpxA lpxB rnhB dnaE lux-a.pk061.c3, t = 6 hr",2.8 and 3.0
same,Solid expt NA/LB,"[2]; lpxA lpxB rnhB dnaE lux-a.pk061.c3, t = 8 hr",1.7 and 1.9
same,Solid expt NA/LB,"[2]; lux-a.pk0015.d6, t = 2 hr",2.3 and 2.2
same,Solid expt NA/LB,"[2]; lux-a.pk0015.d6, t = 4 hr",6.4 and 4.1
same,Solid expt NA/LB,"[2]; lux-a.pk0015.d6, t = 6 hr",2.7 and 1.9
same,Solid expt NA/LB,"[2]; lux-a.pk0015.d6, t = 8 hr",0.6 and 0.8
same,Solid expt NA/LB,"[2]; lux-a.pk0019.g1, t = 2 hr",2.5 and 4.4
same,Solid expt NA/LB,"[2]; lux-a.pk0019.g1, t = 4 hr",7.7 and 8.2
same,Solid expt NA/LB,"[2]; lux-a.pk0019.g1, t = 6 hr",9.7 and 15.5
same,Solid expt NA/LB,"[2]; lux-a.pk0019.g1, t = 8 hr",7.1 and 10.2
same,Solid expt NA/LB,"[2]; lux-a.pk033.c5, t = 2 hr",3.7 and 2.1
same,Solid expt NA/LB,"[2]; lux-a.pk033.c5, t = 4 hr",4.3 and 3.1
same,Solid expt NA/LB,"[2]; lux-a.pk033.c5, t = 6 hr",3.2 and 3.3
same,Solid expt NA/LB,"[2]; lux-a.pk033.c5, t = 8 hr",2.6 and 2.5
same,Solid expt NA/LB,"[2]; oraA lux-a.pk058.f5, t = 2 hr",5.1 and 4.7
same,Solid expt NA/LB,"[2]; oraA lux-a.pk058.f5, t = 4 hr",7.9 and 7.7
same,Solid expt NA/LB,"[2]; oraA lux-a.pk058.f5, t = 6 hr",5.9 and 5.6
same,Solid expt NA/LB,"[2]; oraA lux-a.pk058.f5, t = 8 hr",3.9 and 3.8
same,"fold upregulation, nalidixic acid treated to untreated","[2]; ruvA-lux, duplicate spots",1.7 fold and 2.1 fold
same,Solid expt NA/LB,"[2]; uvrA lux-a.pk0001.b6, t = 2 hr",2.5 and 2.9
same,Solid expt NA/LB,"[2]; uvrA lux-a.pk0001.b6, t = 4 hr",2.3 and 2.4
same,Solid expt NA/LB,"[2]; uvrA lux-a.pk0001.b6, t = 6 hr",1.6 and 1.1
same,Solid expt NA/LB,"[2]; uvrA lux-a.pk0001.b6, t = 8 hr",1.0 and 0.6
same,"fold upregulation, nalidixic acid treated to untreated","[2]; uvrD-lux, duplicate spots",1.6 fold and 1.9 fold
same,Solid expt NA/LB,"[2]; yaaF lux-a.pk031.e7, t = 2 hr",2.1 and 2.0
same,Solid expt NA/LB,"[2]; yaaF lux-a.pk031.e7, t = 4 hr",2.0 and 2.1
same,Solid expt NA/LB,"[2]; yaaF lux-a.pk031.e7, t = 6 hr",1.3 and 1.8
same,Solid expt NA/LB,"[2]; yaaF lux-a.pk031.e7, t = 8 hr",1.0 and 1.5
same,Solid expt NA/LB,"[2]; yfhJ fdx hscA yfhE lux-a.pk0019.g2, t = 2 hr",2.1
same,Solid expt NA/LB,"[2]; yfhJ fdx hscA yfhE lux-a.pk0019.g2, t = 4 hr",2.0 and 2.2
same,Solid expt NA/LB,"[2]; yfhJ fdx hscA yfhE lux-a.pk0019.g2, t = 6 hr",1.7 and 1.5
same,Solid expt NA/LB,"[2]; yfhJ fdx hscA yfhE lux-a.pk0019.g2, t = 8 hr",1.4 and 1.3
same,Solid expt NA/LB,"[2]; yigN lux-a.pk046.f11, t = 4 hr",2.5 and 4.3
same,# of conc with > 1.5 fold up,luxCDABE gene fusions; dinG ybiB lux-a.pk0024.f5,6
same,# of conc with > 1.5 fold up,luxCDABE gene fusions; dinP lux-a.pk055.a3,7
same,# of conc with > 1.5 fold up,luxCDABE gene fusions; frvR frvX frvB frvA lux-a.pk046.e6,0
same,# of conc with > 1.5 fold up,luxCDABE gene fusions; lpxA lpxB rnhB dnaE lux-a.pk061.c3,3
same,# of conc with > 1.5 fold up,luxCDABE gene fusions; lux-a.pk0015.d6,6
same,# of conc with > 1.5 fold up,luxCDABE gene fusions; lux-a.pk0019.g1,6
same,# of conc with > 1.5 fold up,luxCDABE gene fusions; lux-a.pk033.c5,7
same,# of conc with > 1.5 fold up,luxCDABE gene fusions; oraA lux-a.pk058.f5,7
same,# of conc with > 1.5 fold up,luxCDABE gene fusions; yaaF lux-a.pk031.e7,3
same,# of conc with > 1.5 fold up,luxCDABE gene fusions; yfhJ fdx hscA yfhE lux-a.pk0019.g2,0
same,# of conc with > 1.5 fold up,luxCDABE gene fusions; yigN lux-a.pk046.f11,5
